IC50 data for 31 compounds are collected here from patent publication US8173682B2, “Substituted pyridones as inhibitors of poly(ADP-ribose) polymerase (PARP)” (Aventis Pharmaceuticals Inc., priority 2004, dated 2012).

Test [1] has as its target recombinantly expressed human PARP-1 enzyme (Homo sapiens, UniProt P09874). In words: PARP enzyme assay, Method B (tritium-labeled NAD incorporation). The format is biochemical. To be noted: Method B; 200 μM NAD, room temperature 1 hour, pH 8.0; read-out: IC50 (μM)/Method B. Here is the method: Method B: PARP Enzyme Assay:
The IC50 is determined in this method by incubating the substances to be tested with the DNA-activated, recombinantly expressed and purified PARP-1 enzyme. Specifically, various concentrations of the test substance are incubated in 50 μL of reaction solution, which contains 50 mM Tris, 5 mM MgCl2, 1 mM DTT, 200 μM NAD, 0.1 m Ci/mL tritium-labeled NAD, 0.1 mg/mL DNA, 0.1 mg/mL histones, 2 μg/mL recombinantly expressed human PARP-1 enzyme, pH=8.0, at room temperature for 1 hour. The reaction is stopped by adding 150 μL of 20% trichloroacetic acid, and the radiolabeled protein constituents are precipitated. After incubation on ice for 10 minutes, the labeled, insoluble constituents are separated off through a glass fiber filter and, after washing with 20% trichloroacetic acid three times, the radioactivity incorporated by the PARP-1 enzyme is measured by radioluminescence. Consideration of the incorporation rates determined in this way as a function of the concentration of the test substance results in IC50 as the concentration of the test substance which reduces the incorporation rate to half the maximum value attainable (incubation without inhibitor).
The IC50 (fifty percent inhibitory concentration of the test substance in a solution—expressed at micromolar (μM) concentration) measured in accordance with these procedures for the compounds of this invention are summarized in Table 1.

Test [2] has as its target T1, recombinant human PARP (PARP1) (Homo sapiens, UniProt P09874).
T1 construct: Full length human PARP (PARP1) is assembled from PCR fragments; His6 tag with TEV site, from the pFastBac-HTb vector (own knowledge of the vector); made in house; host or cells: insect cells, baculovirus (Bac-to-Bac, Gibco-BRL)
Briefly: PARP enzyme assay, Method A (radioactivity or 'ELISA' enzyme assay with partially purified enzyme). The test is classed as biochemical. To be noted: recombinant human PARP preparation, radioactive or ELISA enzyme assay. The procedure, abridged: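 Partially purified recombinant full-length His-tagged human PARP1, baculovirus-expressed. Radioactive format: 100 μg/mL sonicated DNA, 100 μg/mL histones, 100 mM Tris pH 8.0, 10 mM MgCl2, 200 μM labeled NAD, 10 min 37 °C or 60 min RT, TCA-precipitated counts. ELISA format: 250 μM NAD plus biotin-NAD on histone plates, TMB A450.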

Where a name gives a salt, the structure may show the parent alone.

T1 sequence (P09874 whole entry, the tested form may be a part): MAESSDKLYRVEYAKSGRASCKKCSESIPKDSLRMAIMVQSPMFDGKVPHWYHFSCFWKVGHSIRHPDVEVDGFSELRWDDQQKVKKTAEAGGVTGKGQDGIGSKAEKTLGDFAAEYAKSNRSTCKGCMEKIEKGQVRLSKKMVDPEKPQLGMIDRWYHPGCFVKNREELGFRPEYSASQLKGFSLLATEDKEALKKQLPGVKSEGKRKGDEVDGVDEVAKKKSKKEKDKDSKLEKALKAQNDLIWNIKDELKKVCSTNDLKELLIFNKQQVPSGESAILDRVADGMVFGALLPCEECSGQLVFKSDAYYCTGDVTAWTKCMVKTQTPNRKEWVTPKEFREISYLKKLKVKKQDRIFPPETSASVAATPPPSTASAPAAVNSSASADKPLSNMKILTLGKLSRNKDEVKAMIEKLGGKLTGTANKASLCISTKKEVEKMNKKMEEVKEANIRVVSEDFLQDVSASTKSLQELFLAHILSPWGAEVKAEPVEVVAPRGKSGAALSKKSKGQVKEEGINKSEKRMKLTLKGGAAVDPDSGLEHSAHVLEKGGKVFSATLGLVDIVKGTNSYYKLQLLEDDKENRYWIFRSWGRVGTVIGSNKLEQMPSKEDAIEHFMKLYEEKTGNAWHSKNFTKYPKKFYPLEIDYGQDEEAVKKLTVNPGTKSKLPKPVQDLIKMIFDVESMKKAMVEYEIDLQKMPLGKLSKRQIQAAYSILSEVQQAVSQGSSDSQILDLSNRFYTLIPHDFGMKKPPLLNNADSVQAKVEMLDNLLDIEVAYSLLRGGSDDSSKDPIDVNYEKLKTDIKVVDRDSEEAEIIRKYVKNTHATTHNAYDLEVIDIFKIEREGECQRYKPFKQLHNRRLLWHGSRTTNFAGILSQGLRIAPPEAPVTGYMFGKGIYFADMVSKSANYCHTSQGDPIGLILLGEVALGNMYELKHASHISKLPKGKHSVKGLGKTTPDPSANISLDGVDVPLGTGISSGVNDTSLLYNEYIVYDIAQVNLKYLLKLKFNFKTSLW
Sequence of recombinantly expressed human PARP-1 enzyme (P09874 whole entry): as the sequence (P09874 whole entry, the tested form may be a part) above

As to `CCc1cc(-c2ccc(S(=O)(=O)NCc3ccccn3)s2)c(C)[nH]c1=O` [Example 31, 5-(5-Ethyl-2-methyl-6-oxo-1,6-dihydropyridin-3-yl)thiophene-2-sulfonic acid (pyridin-2-yl)methylamide hydrochloride], in test [1], the IC50 is 0.44 µM.
Still for that read-out and setting: with `CCc1cc(-c2ccc(S(=O)(=O)NC(C)c3ccccn3)s2)c(C)[nH]c1=O` (stereo not shown) [Example 43, 5-(5-Ethyl-2-methyl-6-oxo-1,6-dihydropyridin-3-yl)thiophene-2-sulfonic acid 1-(pyridin-2-yl)ethylamide hydrochloride] the figure was 0.21 µM; with `CCc1cc(-c2ccc(S(=O)(=O)NCCc3ccccn3)s2)c(C)[nH]c1=O` [Example 43A, 5-(5-Ethyl-2-methyl-6-oxo-1,6-dihydropyridin-3-yl)thiophene-2-sulfonic acid 2-(pyridin-2-yl)ethylamide], 0.67 µM.
As for `CCc1cc(-c2ccc(CNCc3nccn3C)s2)c(C)[nH]c1=O` [Example 161, 3-Ethyl-6-methyl-5-(5-{[(1-methyl-1H-imidazol-2-yl)methyl)amino]methyl}-thiophen-2-yl)-1H-pyridin-2-one dihydrochloride], the IC50 in test [2] amounted to 1.3 µM.
`CCc1cc(-c2ccc(CNCc3cccnc3)s2)c(C)[nH]c1=O` [Example 162, 3-Ethyl-6-methyl-5-{5-{[(pyridin-3-ylmethyl)amino]methyl}thiophen-2-yl)-1H-pyridin-2-one dihydrochloride]: the IC50 in test [2] was 0.52 µM.
For `CCc1cc(-c2ccc(CNCCc3cccnc3)s2)c(C)[nH]c1=O` [Example 163, 3-Ethyl-6-methyl-5-{5-{[(pyridin-3-ylethyl)amino]methyl}thiophen-2-yl)-1H-pyridin-2-one dihydrochloride], the IC50 in test [2] amounted to 1.7 µM.
Take `CCc1cc(-c2ccc(CNCc3cccc(Cl)c3)s2)c(C)[nH]c1=O` [Example 164, 5-{5-[(3-Chlorobenzylamino)methyl]thiophen-2-y}]-3-ethyl-6-methyl-1H-pyridin-2-one hydrochloride]: the IC50 in test [2] is 0.69 µM.
The same measure, in the same setting: with `CCc1cc(-c2ccc(CNCc3cccc(C)c3)s2)c(C)[nH]c1=O` [Example 165, 5-{5-[(3-Methylbenzylamino)methyl]thiophen-2-y}]-3-ethyl-6-methyl-1H-pyridin-2-one hydrochloride] the figure was 0.98 µM; with `CCc1cc(-c2ccc(CNCc3ccc(C)cc3)s2)c(C)[nH]c1=O` [Example 166, 5-{5-[(4-Methylbenzylamino)methyl]thiophen-2-y}]-3-ethyl-6-methyl-1H-pyridin-2-one hydrochloride], 0.68 µM.
On to `CCc1cc(-c2ccc(CNCc3cccc(OC)c3)s2)c(C)[nH]c1=O` [Example 167, 5-{5-[(3-Methoxybenzylamino)methyl]thiophen-2-y}]-3-ethyl-6-methyl-1H-pyridin-2-one hydrochloride], for which, in test [2], the IC50 turned out to be 0.55 µM.
On to `CCc1cc(-c2ccc(CNCc3ccc(Cl)cc3)s2)c(C)[nH]c1=O` [Example 168, 5-{5-[(4-chlorobenzylamino)methyl]thiophen-2-y}]-3-ethyl-6-methyl-1H-pyridin-2-one hydrochloride], for which, in test [2], the IC50 came out at 0.4 µM.
In the case of `CCc1cc(-c2ccc(CNCc3ccc(OC)cc3)s2)c(C)[nH]c1=O` [Example 169, 5-{5-[(4-Methoxybenzylamino)methyl]thiophen-2-y}]-3-ethyl-6-methyl-1H-pyridin-2-one hydrochloride], the IC50 in test [2] was found to be 0.6 µM.
The same measure, in the same setting: as for `CCc1cc(-c2ccc(CNCc3cccs3)s2)c(C)[nH]c1=O` [Example 170, 3-Ethyl-6-methyl-5-(5-{[(thiophen-2-ylmethyl)amino]methyl}-thiophen-2-yl)-1H-pyridin-2-one hydrochloride], the figure is 0.28 µM; as for `CCc1cc(-c2ccc(CN3CCCC3)s2)c(C)[nH]c1=O` [Example 171, 3-Ethyl-6-methyl-5-(5-pyrrolidin-1-ylmethylthiophen-2-yl)-1H-pyridin-2-one hydrochloride], 0.48 µM; as for `CCc1cc(-c2ccc(CN3CCC(F)(F)C3)s2)c(C)[nH]c1=O` [Example 172, 5-{5-[(3,3-Difluoropyrrolidin-1-ylmethyl)(thiophen-2-yl)-3-ethyl-6-methyl-1H-pyridin-2-one hydrochloride], 1 µM.
On the same count and under the same terms, with `CCc1cc(-c2ccc(CN3CCC(F)C3)s2)c(C)[nH]c1=O` (stereo not shown) [Example 173, 5-{5-[(3-Fluoropyrrolidin-1-ylmethyl)(thiophen-2-yl)-3-ethyl-6-methyl-1H-pyridin-2-one hydrochloride] the figure was 0.22 µM.
On the same count and under the same terms, as for `CCc1cc(-c2ccc(CN3CCC(OC)C3)s2)c(C)[nH]c1=O` (stereo not shown) [Example 174, 3-Ethyl-5-{5-[(3-methoxypyrrolidin-1-ylmethyl)(thiophen-2-yl)-6-methyl-1H-pyridin-2-one hydrochloride], the figure is 1.3 µM; as for `CCc1cc(-c2ccc(CN)s2)c(C)[nH]c1=O` [Example 175, 5-(5-Aminomethylthiophen-2-yl)-3-ethyl-6-methyl-1H-pyridin-2-one hydrochloride], 0.15 µM; as for `CCc1cc(-c2ccc(CNC(=O)CN3CCCC3)s2)c(C)[nH]c1=O` [Example 176, N-[5-(5-Ethyl-2-methyl-6-oxo-1,6-dihydropyridin-3-yl)thiophen-2-ylmethyl]-2-(pyrrolidin-1-yl)acetamide hydrochloride], 0.28 µM.
`CCc1cc(-c2ccc(CNC(=O)CN(C)C)s2)c(C)[nH]c1=O` [Example 177, 2-Dimethylamino-N-[5-(5-ethyl-2-methyl-6-oxo-1,6-dihydropyridin-3-yl)thiophen-2-ylmethyl]acetamide hydrochloride]: in test [2], the IC50 turned out to be 0.49 µM.
Turning to `CCc1cc(-c2ccc(CNCc3cccc(C(F)(F)F)c3F)s2)c(C)[nH]c1=O` [Example 178, 3-Ethyl-5-{5-[(2-fluoro-3-trifluoromethylbenzylamino)methyl](thiophen-2-yl)-6-methyl-1H-pyridin-2-one hydrochloride], the IC50 in test [2] was 0.4 µM.
Take `CCc1cc(-c2ccc(CN3CCC(Cc4ccccc4)CC3)s2)c(C)[nH]c1=O` [Example 183, 5-[5-(4-Benzylpiperidin-1-ylmethyl)thiophen-2-yl]-3-ethyl-6-methyl-1H-pyridin-2-one hydrochloride]: the IC50 in test [2] was 2.4 µM.
For `CCc1cc(-c2ccc(CN3CCC(c4ccccc4)CC3)s2)c(C)[nH]c1=O` [Example 184, 3-Ethyl-6-methyl-5-[5-(4-phenylpiperidin-1-ylmethyl)thiophen-2-yl]-1H-pyridin-2-one hydrochloride], the IC50 in test [2] was determined as 2.7 µM.
Turning to `CCc1cc(-c2ccc(CN3CCC(O)(c4ccccc4)CC3)s2)c(C)[nH]c1=O` [Example 185, 3-Ethyl-5-[5-(4-hydroxy-4-phenylpiperidin-1-ylmethyl)thiophen-2-yl]-6-methyl-1H-pyridin-2-one hydrochloride], the IC50 in test [2] was determined as 1.8 µM.
Still for that read-out and setting: as for `CCc1cc(-c2ccc(CNCc3ccccc3OC)s2)c(C)[nH]c1=O` [Example 187, 3-Ethyl-5-{5-[(2-methoxybenzylamino)methyl]thiophen-2-yl}-6-methyl-1H-pyridin-2-one hydrochloride], the figure is 0.4 µM; as for `CCc1cc(-c2ccc(CNCc3ccccc3Cl)s2)c(C)[nH]c1=O` [Example 188, 5-{5-[(2-Chlorobenzylamino)methyl]thiophen-2-yl}-3-ethyl-6-methyl-1H-pyridin-2-one hydrochloride], 0.84 µM.
Take `CCc1cc(-c2ccc(CNC3CCCC3)s2)c(C)[nH]c1=O` [Example 189, 5-(5-Cyclopentylaminomethylthiophen-2-yl)-3-ethyl-6-methyl-1H-pyridin-2-one hydrochloride]: in test [2], the IC50 stood at 0.41 µM.
`CCc1cc(-c2ccc(CNC3CCCCC3)s2)c(C)[nH]c1=O` [Example 190, 5-(5-Cyclohexylaminomethylthiophen-2-yl)-3-ethyl-6-methyl-1H-pyridin-2-one hydrochloride]: in test [2], the IC50 is 0.54 µM.
Consider `CCc1cc(-c2ccc(CN3CCC[C@H]3COC)s2)c(C)[nH]c1=O` [Example 191, 3-Ethyl-5-{5-[(S)-2-methoxymethylpyrrolidin-1-ylmethyl]thiophen-2-yl}-6-methyl-1H-pyridin-2-one hydrochloride], for which the IC50 in test [2] is 0.8 µM.
For the compound `CCc1cc(-c2ccc(CNCc3ccccc3F)s2)c(C)[nH]c1=O` [Example 192, 3-Ethyl-5-{5-[(2-fluoro-benzylamino)-methyl]-thiophen-2-yl}-6-methyl-1H-pyridin-2-one hydrochloride], in test [2], the IC50 came out at 0.26 µM.
Consider `CCc1cc(-c2ccc(CNCc3ccccn3)s2)c(C)[nH]c1=O` [Example 195, 3-Ethyl-6-methyl-5-(5-{[(pyridin-2-ylmethyl)amino]methyl}thiophen-2-yl)-1H-pyridin-2-one hydrochloride], for which the IC50 in test [2] came out at 0.67 µM.
